Measurements reported in patent US20090076015A1, “Tricyclic Spiro Compound Comprising Acyl Group Bound to Nitrogen Atom in the Ring” (priority 2005, published 2009).

How the values were obtained:
[1] = molecular target: T1, human FXa (Homo sapiens, UniProt P00742); assay: Measurement of the human FXa inhibitory action; type: biochemical; settings: human FXa 0.019 U/ml, substrate S-2222 0.4 mM, 37° C., Tris-HCl buffer pH 7.5
T1 construct: purchased Enzyme Research Laboratories, Inc
Description: In vitro FXa inhibitory activity may be measured according to the method of Kettner et al. (Journal of Biological Chemistry, vol. 265, pages 18289 to 18297, 1990). To be more specific, human FXa (product of Enzyme Research Laboratories, Inc., 0.019 U/ml) is mixed with the specimens (of the compound of the present invention) prepared by diluting the compound of the invention with dimethylsulfoxide (DMSO) to different concentrations and synthetic substrate S-2222 (Chromogenix AB, 0.4 mM), and the mixtures are incubated at 37° C. in Tris-hydrochloric acid buffer (pH 7.5). The FXa inhibitory activity of the specimen is calculated by continuously observing the absorbance at 405 nm, and comparing the initial speed with the initial speed in the absence of the specimen.
It should be noted that the FXa inhibitory activity of the specimen is generally indicated as IC50.

[2] = test system: human plasma; assay: Measurement of intrinsic coagulation time (APTT) in vitro; type: biochemical; settings: APTT reagent, 37° C., calcium chloride 25 mM
Description: Activated partial thromboplastin time (APTT) is measured in the presence of the test compounds of the present invention diluted at various concentrations. To be more specific, each of the test compounds diluted with DMSO at various concentrations is mixed with human plasma and APTT reagent. The mixture is incubated at 37° C. for 2 minutes; calcium chloride (25 mM) is added to the mixture; and the coagulation time is thereafter measured. It should be noted that the anticoagulant activity of the test compound is described in terms of the concentration required to double the coagulation time for the case where no test compound is added.

T1 sequence (P00742 235-488 limits assumed): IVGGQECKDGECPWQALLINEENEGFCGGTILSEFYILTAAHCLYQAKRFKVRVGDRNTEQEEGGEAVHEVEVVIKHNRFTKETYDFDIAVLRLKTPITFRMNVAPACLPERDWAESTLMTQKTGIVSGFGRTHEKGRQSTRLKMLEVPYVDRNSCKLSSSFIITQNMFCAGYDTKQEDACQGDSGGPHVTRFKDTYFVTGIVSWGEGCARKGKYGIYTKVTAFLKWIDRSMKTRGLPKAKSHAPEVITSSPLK
T1 sequence (P00742 41-179 partner limits assumed): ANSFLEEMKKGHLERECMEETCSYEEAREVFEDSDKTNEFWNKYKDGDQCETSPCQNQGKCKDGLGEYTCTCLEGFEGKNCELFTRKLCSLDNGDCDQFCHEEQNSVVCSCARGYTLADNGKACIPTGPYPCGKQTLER

Row | IC50 [1] [nM] | SMILES | Concentration when APTT was doubled [2] [µM]
1 | 5.6 | CC(=O)NCC12CN(S(=O)(=O)c3cc4cc(Cl)ccc4[nH]3)CC(=O)N1CC1(CCN(C(C)=O)CC1)N2C (single isomer, unassigned) [Example 21, optically active 1′-acetyl-8a-(acetylaminomethyl)-7-[(5-chloro-1H-indol-2-yl)sulfonyl]tetrahydro-1-methyl-spiro[imidazo[1,2-a]pyrazine-2(3H),4′-piperidin]-5(1H)-one] | 0.36
2 | 4.5 | CC(=O)N1CCC2(CC1)CN1C(=O)CN(S(=O)(=O)c3cc4cc(Cl)ccc4[nH]3)CC1(CN(C)C)O2 (single isomer, unassigned) [Example 60, optically active 1′-acetyl-7-[(5-chloro-1H-indol-2-yl)sulfonyl]tetrahydro-8a-(N,N-dimethylaminomethyl)-spiro[5H-oxazolo[3,2-a]pyrazine-2(3H),4′-piperidin]-5-one] | 
3 | 1.6 | CCC(=O)N1CCC2(CC1)CN1C(=O)CN(S(=O)(=O)c3cc4cc(Cl)ccc4[nH]3)CC1(CN(C)CC(=O)O)O2 (single isomer, unassigned) [Example 66, optically active N-[[7-[(5-chloro-1H-indol-2-yl)sulfonyl]tetrahydro-5-oxo-1′-propanoyl-spiro[5H-oxazolo[3,2-a]pyrazine-2(3H),4′-piperidin]-8a-yl]methyl]-N-methylglycine] | 
4 | 6.5 | C#CC(=O)N1CCC2(CC1)CN1C(=O)CN(S(=O)(=O)c3cc4ccc(Cl)cc4s3)CC1(COC)N2C (single isomer, unassigned; (-)) [Example 17, (−)-7-[(6-chloro-benzo[b]thiophen-2-yl)sulfonyl]tetrahydro-8a-(methoxymethyl)-1-methyl-1′-propinoyl-spiro[imidazo[1,2-a]pyrazine-2(3H),4′-piperidin]-5(1H)-one] | 0.87
5 | 5.7 | CCC(=O)N1CCC2(CC1)CN1C(=O)CN(S(=O)(=O)c3cc4cc(Cl)ccc4[nH]3)CC1(COC)N2 (single isomer, unassigned; (-)) [Example 26, (−)-7-[(5-chloro-1H-indol-2-yl)sulfonyl]tetrahydro-8a-(methoxymethyl)-1′-propanoyl-spiro[imidazo[1,2-a]pyrazine-2(3H),4′-piperidin]-5(1H)-one] | 0.44
6 | 8.2 | COCC12CN(S(=O)(=O)c3cc4cc(Cl)ccc4[nH]3)CC(=O)N1CC1(CCN(C(C)=O)CC1)O2 (single isomer, unassigned; (-)) [Example 34, (−)-1′-acetyl-7-[(5-chloro-1H-indol-2-yl)sulfonyl]tetrahydro-8a-(methoxymethyl)-spiro[5H-oxazolo[3,2-a]pyrazine-2(3H),4′-piperidin]-5-one] | 

Continued, compound first:

Row | SMILES | IC50 [1] [nM] | Concentration when APTT was doubled [2] [µM]
7 | COCC12CN(S(=O)(=O)c3cc4cc(Cl)ccc4[nH]3)CC(=O)N1CC1(CCN(C(=O)C3CCC3)CC1)N2C (single isomer, unassigned; (-)) [Example 3, (−)-7-[(5-chloro-1H-indol-2-yl)sulfonyl]-1′-cyclobutanecarbonyl-tetrahydro-8a-(methoxymethyl)-1-methyl-spiro[imidazo[1,2-a]pyrazine-2(3H),4′-piperidin]-5(1H)-one] | 1.3 | 
8 | CCC(=O)N1CCC2(CC1)CN1C(=O)CN(S(=O)(=O)c3cc4cc(Cl)ccc4[nH]3)CC1(COC)N2C (single isomer, unassigned; (-)) [Example 2, (−)-7-[(5-chloro-1H-indol-2-yl)sulfonyl]tetrahydro-8a-(methoxymethyl)-1-methyl-1′-propanoyl-spiro[imidazo[1,2-a]pyrazine-2(3H),4′-piperidin]-5(1H)-one] | 1.8 | 
9 | COC(=O)COCC12CN(S(=O)(=O)c3cc4cc(Cl)ccc4[nH]3)CC(=O)N1CC1(CCN(C(C)=O)CC1)O2 (single isomer, unassigned; (-)) [Example 54, (−)-1′-acetyl-7-[(5-chloro-1H-indol-2-yl)sulfonyl]tetrahydro-8a-(methoxycarbonylmethoxymethyl)-spiro[5H-oxazolo[3,2-a]pyrazine-2(3H),4′-piperidin]-5-one] |  | 0.4
10 | CCN1C2(CCN(C(C)=O)CC2)CN2C(=O)CN(S(=O)(=O)c3cc4cc(Cl)ccc4[nH]3)CC21COC (single isomer, unassigned; (-)) [Example 23, (−)-1′-acetyl-7-[(5-chloro-1H-indol-2-yl)sulfonyl]tetrahydro-1-ethyl-8a-(methoxymethyl)-spiro[imidazo[1,2-a]pyrazine-2(3H),4′-piperidin]-5(1H)-one] |  | 0.19
11 | CCOC(=O)CN(C)CC12CN(S(=O)(=O)c3cc4cc(Cl)ccc4[nH]3)C[C@@H](O)N1CC1(CCN(C(=O)CC)CC1)O2 (single isomer, unassigned) [Example 64, optically active 7-[(5-chloro-1H-indol-2-yl)sulfonyl]tetrahydro-8a-[(N-ethoxycarboxymethyl)-N-methylaminomethyl]-1′-propanoyl-spiro[5H-oxazolo[3,2-a]pyrazine-2(3H),4′-piperidin]-5-one] |  | 0.89
12 | O=C(C1CC1)N1CCC2(CC1)CN1C(=O)CN(S(=O)(=O)c3cc4cc(Cl)ccc4[nH]3)CC1(CO)O2 (single isomer, unassigned; (-)) [Example 52, (−)-7-[(5-chloro-1H-indol-2-yl)sulfonyl]tetrahydro-1′-cyclopropanoyl-8a-(hydroxymethyl)-spiro[5H-oxazolo[3,2-a]pyrazine-2(3H),4′-piperidin]-5-one] |  | 0.57
13 | C#CC(=O)N1CCC2(CC1)CN1C(=O)CN(S(=O)(=O)c3cc4cc(Cl)ccc4[nH]3)CC1(COC)N2C (single isomer, unassigned; (-)) [Example 13, (−)-7-[(5-chloro-1H-indol-2-yl)sulfonyl]tetrahydro-8a-(methoxymethyl)-1-methyl-1′-propinoyl-spiro[imidazo[1,2-a]pyrazine-2(3H),4′-piperidin]-5(1H)-one] | 2.6 | 
14 | COCC12CN(S(=O)(=O)c3cc4cc(Cl)ccc4[nH]3)CC(=O)N1CC1(CCN(C(C)=O)CC1)N2C (single isomer, unassigned; (-)) [Example 1, (−)-1′-acetyl-7-[(5-chloro-1H-indol-2-yl)sulfonyl]tetrahydro-8a-(methoxymethyl)-1-methyl-spiro[imidazo[1,2-a]pyrazine-2(3H),4′-piperidin]-5(1H)-one] | 5.7 | 
15 | COCC12CN(S(=O)(=O)/C=C/c3ccc(Cl)s3)CC(=O)N1CC1(CCN(C(C)=O)CC1)N2C (single isomer, unassigned; (-)) [Example 14, (−)-1′-acetyl-7-[[(1E)-2-(5-chloro-2-thienyl)ethenyl]sulfonyl]tetrahydro-8a-(methoxymethyl)-1-methyl-spiro[imidazo[1,2-a]pyrazine-2(3H),4′-piperidin]-5(1H)-one] |  | 0.64
16 | COCC12CN(S(=O)(=O)/C=C/c3ccc(Cl)s3)CC(=O)N1CC1(CCN(C(C)=O)CC1)O2 (single isomer, unassigned; (-)) [Example 36, (−)-1′-acetyl-7-[[(1E)-2-(5-chloro-2-thienyl)ethenyl]sulfonyl]tetrahydro-8a-(methoxymethyl)-spiro[5H-oxazolo[3,2-a]pyrazine-2(3H),4′-piperidin]-5-one] |  | 0.83
17 | C=CC(=O)N1CCC2(CC1)CN1C(=O)CN(S(=O)(=O)c3cc4cc(Cl)ccc4[nH]3)CC1(COC)N2C (single isomer, unassigned; (-)) [Example 4, (−)-7-[(5-chloro-1H-indol-2-yl)sulfonyl]tetrahydro-8a-(methoxymethyl)-1-methyl-1′-propenoyl-spiro[imidazo[1,2-a]pyrazine-2(3H),4′-piperidin]-5(1H)-one] |  | 0.5
18 | CC(=O)N1CCC2(CC1)CN1C(=O)CN(S(=O)(=O)c3cc4cc(Cl)ccc4[nH]3)CC1(COc1ncccn1)O2 (single isomer, unassigned; (-)) [Example 56, (−)-1′-acetyl-7-[(5-chloro-1H-indol-2-yl)sulfonyl]tetrahydro-8a-(2-pyrimidyloxymethyl)-spiro[5H-oxazolo[3,2-a]pyrazine-2(3H),4′-piperidin]-5-one] |  | 0.5
